Each compound was assayed against Carbonic anhydrase 1 (Homo sapiens, UniProt P00915).
Carbonic anhydrase 1, sequence (P00915 whole entry): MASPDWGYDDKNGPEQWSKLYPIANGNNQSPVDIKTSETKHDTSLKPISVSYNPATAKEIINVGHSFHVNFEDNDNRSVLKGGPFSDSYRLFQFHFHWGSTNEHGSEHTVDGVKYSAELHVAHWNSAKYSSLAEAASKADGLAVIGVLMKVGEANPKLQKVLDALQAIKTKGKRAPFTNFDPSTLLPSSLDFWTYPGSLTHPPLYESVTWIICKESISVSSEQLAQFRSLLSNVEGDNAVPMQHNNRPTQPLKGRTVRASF
Description: Inhibitory activity against Carbonic anhydrase I

Ki	Compound
3900 nM	NNc1ccc(S(N)(=O)=O)cc1

What follows are compounds tested against Carbonic anhydrase 9 (Homo sapiens, UniProt Q16790).
Description: Inhibitory activity against Carbonic anhydrase IX

Ki	Compound
32 nM	Cc1ccccc1S(=O)(=O)NC(=O)NNC(=O)c1ccc(S(N)(=O)=O)cc1
70 nM	Cc1ccc(S(=O)(=O)NC(=O)NNC(=O)c2ccccc2S(N)(=O)=O)cc1
24 nM	NS(=O)(=O)c1ccc(C(=O)NNC(=O)Nc2ccc(C34CC5CC(CC(C5)C3)C4)cc2)cc1
136 nM	NNc1ccc(S(N)(=O)=O)cc1F
149 nM	NNc1ccc(S(N)(=O)=O)cc1Cl
7 nM	NS(=O)(=O)c1ccc(C(=O)NNC(=O)Nc2ccc(Cc3ccccc3)cc2)cc1
5.4 nM	NS(=O)(=O)c1ccc(C(=O)NNC(=O)NS(=O)(=O)c2ccc(Cl)cc2)cc1
7.9 nM	NS(=O)(=O)c1ccc(C(=O)NNC(=O)Nc2ccc(Cl)c(Cl)c2)cc1
76 nM	NS(=O)(=O)c1ccccc1C(=O)NNC(=O)NS(=O)(=O)c1ccccc1
547 nM	NNC(=O)c1ccccc1S(N)(=O)=O
8.3 nM	CC(=O)c1ccc(NC(=O)NNC(=O)c2ccc(S(N)(=O)=O)cc2)cc1

Further lines, the compound ahead of its results:

Compound	Ki
COC(=O)c1ccccc1S(N)(=O)=O	680 nM
NS(=O)(=O)c1ccccc1C(=O)NNC(=O)NS(=O)(=O)c1ccc(F)cc1	64 nM
Cc1ccc(S(=O)(=O)NC(=O)NNC(=O)c2ccc(S(N)(=O)=O)cc2)cc1	5.8 nM
NS(=O)(=O)c1ccc(C(=O)NNC(=O)Nc2ccc(Oc3ccccc3)cc2)cc1	7.9 nM
NS(=O)(=O)c1ccc(C(=O)NNC(=O)NC2c3ccccc3-c3ccccc32)cc1	13 nM
Cc1ccccc1S(=O)(=O)NC(=O)NNC(=O)c1ccccc1S(N)(=O)=O	83 nM
NS(=O)(=O)c1ccccc1C(=O)NNC(=O)NS(=O)(=O)c1ccc(Cl)cc1	72 nM
NS(=O)(=O)c1ccc(C(=O)NNC(=O)NS(=O)(=O)c2ccc(F)cc2)cc1	6.2 nM
NS(=O)(=O)c1ccc(C(=O)NNC(=O)NS(=O)(=O)c2ccccc2)cc1	35 nM
NS(=O)(=O)c1ccc(C(=O)NNC(=O)Nc2ccc(-c3ccccc3)cc2)cc1	5.4 nM
NS(=O)(=O)c1ccc(C(=O)NNC(=O)Nc2ccc(Br)cc2)cc1	8.6 nM
NS(=O)(=O)c1ccc(C(=O)O)cc1 [CARZENIDE]	346 nM

Reference: ChEMBL document CHEMBL1145204, “Carbonic anhydrase inhibitors: synthesis and inhibition of cytosolic/membrane-associated carbonic anhydrase isozymes I, II, and IX with sulfonamides incorporating hydrazino moieties” (J Med Chem, 2005)
